# According to patent US6946458B2, “N-thiolated beta-lactams: novel antibacterial agents for methicillin-resistant Staphylococcus aureus” (University of South Florida, priority 1999, dated 2005):
# How the values were obtained:
# [1] = test system: S. saprophyticus (ATCC 3552); test: Kirby-Bauer agar disk diffusion; format: cell-based, Staphylococcus saprophyticus; settings: 6-mm disks, 20 μg test compound
# Protocol: (§1) In this study, a selection of N-methylthio-substituted β-lactams are examined for antimicrobial activity by the Kirby-Bauer disk diffusion method on agar plates. A variety of common Gram-positive and Gram-negative bacteria are tested, including clinical isolates of methicillin-resistant Staphylococcus aureus (MRSA).
# (§2) Compound susceptibility measurements are obtained from agar disk diffusion experiments using 6-mm air-dried disks impregnated with 20 μg of the test compound. The values correspond to the average diameters in mm (triplicate experiments) for the zone of growth inhibition observed after 24 h. Staphylococcus aureus (ATCC 25923) and β-lactamase-producing strains of methicillin-resistant Staphylococcus aureus (labeled as MRSA USF652-659) are obtained from Lakeland Regional Medical Center, Lakeland, Fla. Staphylococcus epidermidis, Staphylococcus simulans, Staphylococcus simulans, and Microcossus luteus are clinical isolates from University of South Florida Medical Clinic. Nieserria gonnorhoeae (β-lactamase positive) is obtained from the Tampa Branch State Laboratory. PenG is penicillin G (potassium salt). Table 1 provides the zones of growth inhibition that are observed after 24 hours using the lactams of FIGS. 1A-1I (designated A-I, respectively).
# (§3) Of particular interest is the ability of these compounds to retain their effectiveness against penicillin-resistant strains of Staphylococcus aureus, a dangerous hospital-borne pathogen which is becoming difficult to treat with conventional antibiotic therapy. The lactams were screened for antibacterial activity by disk diffusion on agar plates, and the resulting zones of bacterial growth inhibition measured (see Table 3; each lactam is designated by Figure number).
# (§4) Table 3: Growth inhibition zones obtained from agar disk diffusion experiments using 6-mm air-dried disks impregnated with 20 μg of the test compound. The values correspond to the average diameters in mm for the zone of growth inhibition observed after 24 hours. Staphylococcus aureus and β-lactamase-producing strains of methicillin-resistant Staphylococcus aureus (labeled MRSA USF652-659) are obtained from a clinical testing laboratory at Lakeland Regional Medical Center, Lakeland, Fla.
# MRSA USF652 = test: Kirby-Bauer agar disk diffusion; format: cell-based, Staphylococcus aureus; settings: 6-mm disks, 20 μg test compound
# Protocol: as §1, §2, §3, §4
# (§5) Those compounds were tested for bioactivity using the Kirby-Bauer test on agar plates.
# (§6) Biological activity is enhanced against β-lactamase producing strains of methicillin-resistant Staphylococcus aureus (MRSA). With the lactam shown in FIG. 11A serving as a lead structure, a series of other C-4 substituted derivatives (FIGS. 11B-11I) were investigated herein. Table 5 lists microbiological data for β-lactams from Kirby-Bauer Disc Diffusion Test Results (with each lactam identified by Figure number).
# (§7) Scheme I summarizes the synthesis of ester compounds 4. 4-Carboxy benzaldehyde (1) is coupled with the appropriate alcohol using DCC/DMAP, followed by reaction with p-anisidine, to give imines 2. Staudinger coupling of methoxyacetyl chloride with imine 2 gives N-aryl protected β-lactam 3. N-Dearylation of β-lactam 3 with ceric ammonium nitrate and methylthiolation with N-(methylthio)phthalimide affords N-methylthio β-lactams 4. These compounds are tested for antibacterial activity by the Kirby-Bauer method of disc diffusion on agar plates. [drawing 7]
# MRSA USF653 = test: Kirby-Bauer agar disk diffusion; format: cell-based, Staphylococcus aureus; settings: 6-mm disks, 20 μg test compound
# Protocol: as §1, §2, §3, §4, §5, §6, §7
# MRSA USF654 = test: Kirby-Bauer agar disk diffusion; format: cell-based, Staphylococcus aureus; settings: 6-mm disks, 20 μg test compound
# Protocol: as §1, §2, §3, §4, §5, §6, §7
# MRSA USF657 = test: Kirby-Bauer agar disk diffusion; format: cell-based, Staphylococcus aureus; settings: 6-mm disks, 20 μg test compound
# Protocol: as §1, §2, §3, §4, §5, §6, §7
# MRSA USF655 = test: Kirby-Bauer agar disk diffusion; format: cell-based, Staphylococcus aureus; settings: 6-mm disks, 20 μg test compound
# Protocol: as §1, §2, §3, §4, §5, §6, §7
# MRSA USF656 = test: Kirby-Bauer agar disk diffusion; format: cell-based, Staphylococcus aureus; settings: 6-mm disks, 20 μg test compound
# Protocol: as §1, §2, §3, §4, §5, §6, §7
# MRSA USF659 = test: Kirby-Bauer agar disk diffusion; format: cell-based, Staphylococcus aureus; settings: 6-mm disks, 20 μg test compound
# Protocol: as §1, §2, §3, §4, §5, §6, §7
# MRSA USF658 = test: Kirby-Bauer agar disk diffusion; format: cell-based, Staphylococcus aureus; settings: 6-mm disks, 20 μg test compound
# Protocol: as §1, §2, §3, §4, §5, §6, §7
# S. simulans (ATCC 11631) = test: Kirby-Bauer agar disk diffusion; format: cell-based, Staphylococcus simulans; settings: 6-mm disks, 20 μg test compound
# Protocol: as §1, §2, §3, §4
# [2] = test system: Staphylococcus strains including MRSA; test: antibacterial activity screening, results stated in words; format: cell-based, Staphylococcus aureus; settings: Example 2; all microorganisms tested
# From the text: However, the N-alkylthio substituent is required, since reduction to the N—H analogue completely destroys the biological activity. […]
# as §3
# With the lactam of FIG. 6A serving as a lead structure, other C4-unsaturated derivatives (FIGS. 6B-6E) and C4-saturated analogues (FIGS. 6F-6H), were examined all of which also have activity against Staphylococcus strains including MRSA.
# as §7
# [3] = test system: Staphylococcus aureus (ATCC 25923); test: Kirby-Bauer agar disk diffusion; format: cell-based; settings: 6-mm disks, 20 μg test compound
# Protocol: as §1, §2, §3, §4
# [4] = test system: Staphylococcus epidermidis; test: Kirby-Bauer agar disk diffusion; format: cell-based; settings: 6-mm disks, 20 μg test compound
# Protocol: as §1, §2, §3, §4
# Micrococcus luteus = test: Kirby-Bauer agar disk diffusion; format: cell-based; settings: 6-mm disks, 20 μg test compound
# Protocol: as §1, §2, §3, §4
# N. gonorrhoeae = test: Kirby-Bauer agar disk diffusion; format: cell-based, Neisseria gonorrhoeae; settings: Table 1; 6-mm disks, 20 μg test compound, 24 h, triplicate; β-lactamase positive
# Protocol: as §1, §2
SMILES,"zone of growth inhibition, average diameter (N. gonorrhoeae) [mm]","zone of growth inhibition, average diameter ([1]; Table 1, 24 h, triplicate) [mm]","zone of growth inhibition, average diameter (MRSA USF652; Table 1, 24 h, triplicate) [mm]","zone of growth inhibition, average diameter (MRSA USF653; Table 1, 24 h, triplicate) [mm]","zone of growth inhibition, average diameter (MRSA USF654; Table 1, 24 h, triplicate) [mm]","zone of growth inhibition, average diameter (MRSA USF657; Table 1, 24 h, triplicate) [mm]","zone of growth inhibition, average diameter (MRSA USF655; Table 1, 24 h, triplicate) [mm]","zone of growth inhibition, average diameter (MRSA USF656; Table 1, 24 h, triplicate) [mm]","zone of growth inhibition, average diameter (MRSA USF659; Table 1, 24 h, triplicate) [mm]","zone of growth inhibition, average diameter (MRSA USF658; Table 1, 24 h, triplicate) [mm]","zone of growth inhibition, average diameter (S. simulans (ATCC 11631); Table 1, 24 h, triplicate) [mm]","zone of growth inhibition, average diameter ([3]; Table 1, 24 h, triplicate) [mm]","zone of growth inhibition, average diameter ([4]; Table 1, 24 h, triplicate) [mm]","zone of growth inhibition, average diameter (Micrococcus luteus; Table 1, 24 h, triplicate) [mm]",other results
COC1C(=O)N(SC)C1C(C#Cc1ccccc1)OC(C)=O (mixture of isomers) [FIG. 3H],,,,,,,,,,,,,,,"zone of growth inhibition, average diameter ([1]; Table 3, 24 hours): 0 mm; zone of growth inhibition, average diameter (MRSA USF652; Table 3, 24 hours): 0 mm; zone of growth inhibition, average diameter (MRSA USF653; Table 3, 24 hours): 0 mm; zone of growth inhibition, average diameter (MRSA USF654; Table 3, 24 hours): 0 mm; zone of growth inhibition, average diameter (MRSA USF657; Table 3, 24 hours): 0 mm; zone of growth inhibition, average diameter (MRSA USF655; Table 3, 24 hours): 0 mm; zone of growth inhibition, average diameter (MRSA USF656; Table 3, 24 hours): 0 mm; zone of growth inhibition, average diameter (MRSA USF659; Table 3, 24 hours): 0 mm; zone of growth inhibition, average diameter (MRSA USF658; Table 3, 24 hours): 0 mm; zone of growth inhibition, average diameter (S. simulans (ATCC 11631); Table 3, 24 hours): 0 mm; antimicrobial activity, in words [2]: inactive; zone of growth inhibition, average diameter ([3]; Table 3, 24 hours): 0 mm; zone of growth inhibition, average diameter ([4]; Table 3, 24 hours): 0 mm; zone of growth inhibition, average diameter (Micrococcus luteus; Table 3, 24 hours): 0 mm"
COC1C(=O)N(SC)C1C#Cc1ccccc1 (racemic) [Lactam A],13,22,31,30,28,30,29,30,25,27,21,27,30,23,
COC1C(=O)N(SC)C1C=Cc1ccccc1 (racemic) [Lactam B],11,12,19,23,16,17,17,19,15,16,11,18,23,20,
COC1C(=O)N(SC)C1c1ccccc1 (racemic) [Lactam C],14,22,30,30,26,27,25,28,24,26,14,25,31,21,
COC1C(=O)N(SC)C1c1cccc([N+](=O)[O-])c1 (racemic) [Lactam E],12,15,17,22,16,18,14,18,11,17,13,15,20,22,
COC(=O)c1ccc(C2C(OC)C(=O)N2SC)cc1 (racemic) [Lactam F],11,8,12,14,12,12,14,11,13,12,0,12,12,20,
COC1C(=O)N(SC)C1c1ccc(C#N)cc1 (racemic) [Lactam G],12,14,14,16,12,10,12,13,12,12,0,14,20,21,
COC1C(=O)N(SC)C1c1ccccc1C (racemic) [Lactam H],12,15,23,27,23,23,23,25,20,22,14,23,25,21,
COC1C(=O)N2SC(c3ccccc3)=C(I)C12 (stereo not drawn) [FIG. 2D],,,,,,,,,,,,,,,"zone of growth inhibition, average diameter ([1]; Table 3, 24 hours): 0 mm; zone of growth inhibition, average diameter (MRSA USF652; Table 3, 24 hours): 0 mm; zone of growth inhibition, average diameter (MRSA USF653; Table 3, 24 hours): 0 mm; zone of growth inhibition, average diameter (MRSA USF654; Table 3, 24 hours): 0 mm; zone of growth inhibition, average diameter (MRSA USF657; Table 3, 24 hours): 0 mm; zone of growth inhibition, average diameter (MRSA USF655; Table 3, 24 hours): 0 mm; zone of growth inhibition, average diameter (MRSA USF656; Table 3, 24 hours): 0 mm; zone of growth inhibition, average diameter (MRSA USF659; Table 3, 24 hours): 0 mm; zone of growth inhibition, average diameter (MRSA USF658; Table 3, 24 hours): 0 mm; zone of growth inhibition, average diameter (S. simulans (ATCC 11631); Table 3, 24 hours): 0 mm; antimicrobial activity, in words [2]: no antimicrobial activity; zone of growth inhibition, average diameter ([3]; Table 3, 24 hours): 0 mm; zone of growth inhibition, average diameter ([4]; Table 3, 24 hours): 0 mm; zone of growth inhibition, average diameter (Micrococcus luteus; Table 3, 24 hours): 0 mm"
